Laboratory results: the PolyMetriX glass transition set

Row | SMILES | glass transition temperature [°C]
1 | *c1c(C)cc(-c2cc(C)c(N3C(=O)c4ccc(Oc5ccc(C(C)(C)c6ccc(Oc7ccc8c(c7)C(=O)N(*)C8=O)cc6)cc5)cc4C3=O)c(C)c2)cc1C (repeat unit) | 280.00
2 | *OP(=O)(Oc1ccc(OC)cc1)Oc1c(C)cc(S(=O)(=O)c2cc(C)c(*)c(C)c2)cc1C (repeat unit) | 147.00
3 | *C1C(=O)OC(=O)C1C1C2CC(C(=O)OC3CCCCC3)C(C2)C1* (repeat unit) | 195.00
4 | *CCCCCCCCCNC(=O)c1ccc(C(=O)N*)cc1 (repeat unit) | 115.00
5 | *CC(*)C(=O)N(C)C (repeat unit) | 114.00
6 | *C(=O)Nc1ccc(Cc2ccc(NC(=O)c3ccc4c(c3)C(=O)N(c3cccc(P(=O)(c5ccccc5)c5cccc(N6C(=O)c7ccc(*)cc7C6=O)c5)c3)C4=O)cc2)cc1 (repeat unit) | 233.00
7 | *CC(*)(C)C(=O)OCCO[Si](C)(C)C (repeat unit) | 89.00
8 | *C(=O)OCC(COc1ccc(/N=N/c2ccc(C#N)cc2)cc1)OC(=O)c1ccc(*)s1 (repeat unit) | 119.00
9 | *CCCCCCCCCCCCc1nc2ccc(-c3ccc4nc(*)oc4c3)cc2o1 (repeat unit) | 55.00
10 | *CC(*)n1cncn1 (repeat unit) | 165.00
11 | *C([2H])([2H])C(*)([2H])c1c([2H])c([2H])c([2H])c([2H])c1[2H] (repeat unit) | 97.00
12 | *CC(*)(C)C(=O)OCCF (repeat unit) | 90.00
13 | *OC(CC)C(*)=O (repeat unit) | 15.00
14 | *Nc1ccc(NC(=O)Cc2cc(CC(*)=O)c(C)cc2C)cc1 (repeat unit) | 208.00
15 | *Oc1ccc(Oc2ccc(P(=O)(c3ccccc3)c3ccc(Oc4ccc(Oc5cccc(*)n5)cc4)cc3)cc2)cc1 (repeat unit) | 164.00

Other lines, results leading:

Row | glass transition temperature [°C] | SMILES
16 | 246.00 | *c1ccc(Oc2ccc(S(=O)(=O)c3ccc(Oc4ccc(N5C(=O)c6ccc([Si](C)(C)c7ccc8c(c7)C(=O)N(*)C8=O)cc6C5=O)cc4)cc3)cc2)cc1 (repeat unit)
17 | 100.00 | *CC(*)(C)C(=O)OC1CCC(C(C)(C)C)CC1 (repeat unit)
18 | 279.00 | *c1nc(-c2ccccc2)nc(N(c2ccccc2)c2ncnc(N(*)c3ccccc3)n2)n1 (repeat unit)
19 | 163.00 | *Oc1ccc(S(=O)(=O)c2ccc(Oc3ccc(C(C)(C)c4ccc(*)c(C(OC)(C(F)(F)F)C(F)(F)F)c4)cc3C(OC)(C(F)(F)F)C(F)(F)F)cc2)cc1 (repeat unit)
20 | 99.00 | */C=C/C1CC(*)C2C(=O)N(CCCCC)C(=O)C12 (repeat unit)
21 | 177.00 | *Nc1ccc(C(C)(C)c2cccc(C(C)(C)c3ccc(Nc4ccc(C(=O)c5ccc(C(=O)c6ccc(*)cc6)cc5)cc4)cc3)c2)cc1 (repeat unit)
22 | -35.00 | *CCOCCOCCOC(=O)CCSCCC(=O)O* (repeat unit)
23 | 390.00 | *c1ccc(C2(c3ccc(-c4cc(-c5ccccc5)c5cc(C6(c7ccc8nc(*)cc(-c9ccccc9)c8c7)c7ccccc7C(=O)c7ccccc76)ccc5n4)cc3)c3ccccc3C(=O)c3ccccc32)cc1 (repeat unit)
24 | 294.00 | *C(=O)Nc1cccc(NC(=O)c2ccc3[nH]c(-c4ccc(-c5nc6cc(*)ccc6[nH]5)cc4)nc3c2)c1 (repeat unit)
25 | 274.00 | *c1ccc2c(c1)C(=O)N(c1ccc(Cc3ccc(N4C(=O)c5ccc(C(*)(C(F)(F)F)C(F)(F)F)cc5C4=O)c(C(C)(C)C)c3)cc1C(C)(C)C)C2=O (repeat unit)
26 | 162.00 | *Oc1ccc(/C=N/N=C/c2ccc(Oc3ccc(C(c4ccc(*)cc4)(C(F)(F)F)C(F)(F)F)cc3)cc2)cc1 (repeat unit)
27 | 77.30 | */C=C/C1CC(*)C(C(=O)OC)C1C(=O)OC (repeat unit)
